The values that follow come from patent US9908868B2, “Isoindolinone compounds as GPR119 modulators for the treatment of diabetes, obesity, dyslipidemia and related disorders” (SANOFI, priority 2014, dated 2018).

The assay addresses T1, human GPR119 (Homo sapiens, UniProt Q8TDV5).
T1 construct: expressed in transfected cells
T1 sequence (Q8TDV5 1-335): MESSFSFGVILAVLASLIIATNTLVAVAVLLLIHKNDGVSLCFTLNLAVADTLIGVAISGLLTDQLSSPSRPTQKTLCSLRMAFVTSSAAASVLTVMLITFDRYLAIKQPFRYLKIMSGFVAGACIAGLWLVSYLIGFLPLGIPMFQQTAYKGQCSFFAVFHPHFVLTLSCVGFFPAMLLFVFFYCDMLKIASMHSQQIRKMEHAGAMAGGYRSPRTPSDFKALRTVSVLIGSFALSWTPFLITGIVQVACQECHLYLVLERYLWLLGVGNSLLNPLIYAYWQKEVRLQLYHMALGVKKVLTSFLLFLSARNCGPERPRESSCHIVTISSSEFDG
The assay is described as follows: Functional cellular assay measuring GPR119-mediated cAMP release (HTRF) in HEK-293 cells stably expressing recombinant human GPR119. Type of assay: cell-based. As to conditions: cAMP response, cell line expressing human GPR119, 30 minutes at room temperature. As for the experimental part:
Functional Cellular Assays Measuring GPR119-Mediated cAMP Release
Compounds of the invention, which are agonists of GPR119, were characterized by functional assays measuring the cAMP response of HEK-293 cell lines stably expressing recombinant GPR119 from man, mouse or rat, or by using a hamster cell line HIT-T15 expressing GPR119 endogenously. The cAMP content was determined using a kit based on homogenous time-resolved fluorescence (HTRF) from Cisbio Corp. (cat. no. 62AM4PEC). For preparation, cells were split into T175 culture flasks and grown to near confluency in medium (DMEM/10% FCS for HEK-293 cells, and F-12K medium/10% horse serum/2.5% FCS for HIT-T15 cells, respectively). Medium was then removed and cells washed with PBS lacking calcium and magnesium ions, followed by proteinase treatment with accutase (Sigma-Aldrich, cat. no. A6964). Detached cells were washed and resuspended in assay buffer (1×HBSS; 20 mM HEPES, 0.1% BSA, 2 mM IBMX) and cellular density determined. They were then diluted to 400000 cells/mL and 25 μL-aliquots dispensed to the wells of 96-well plates. For measurement, 25 μL of test compound in assay buffer was added and incubated for 30 minutes at room temperature. After addition of HTRF reagents diluted in lysis buffer, the plates were incubated for 1 hour, followed by measuring the fluorescence ratio at 665 vs. 620 nm. Potency of the agonists was quantified by determining the concentrations that caused 50% of the maximal response/activation (EC50). See Table 7 for exemplary data obtained using the cell line expressing human GPR119.
In general terms: In TR-FRET formats the signal depends on donor and acceptor labels being close together.

Structures are written as SMILES. Bounds are passed on as bounds.

Broadly, the EC50 is the concentration at which the effect is half-maximal. `CN(C)C(=O)CN1Cc2ccc(N3CC[C@H](Oc4ccc(OCC5CC5)nc4)C3=O)cc2C1=O` [Example 1-25, 2-[6-[(3S)-3-[[6-(cyclopropylmethoxy)-3-pyridyl]oxy]-2-oxo-pyrrolidin-1-yl]-1-oxo-isoindolin-2-yl]-N,N-dimethyl-acetamide]: the EC50 was 441 nM.
In the case of `CN(C)C(=O)Cn1c(=O)c2cc(N3CC[C@H](Oc4ccc(OCC5CC5)nc4)C3=O)ccc2n1C` [Example 1-26, 2-[5-[(3S)-3-[[6-(cyclopropylmethoxy)-3-pyridyl]oxy]-2-oxo-pyrrolidin-1-yl]-1-methyl-3-oxo-indazol-2-yl]-N,N-dimethyl-acetamide], the EC50 was 14200 nM.
With `CN(C)C(=O)Cn1c(=O)c2cc(N3CC[C@@H](Oc4ccc(OCC5CC5)nc4)C3=O)ccc2n1C` [Example 1-27, 2-[5-[(3R)-3-[[6-(cyclopropylmethoxy)-3-pyridyl]oxy]-2-oxo-pyrrolidin-1-yl]-1-methyl-3-oxo-indazol-2-yl]-N,N-dimethyl-acetamide] the figure was 488 nM.
As for `CN(C)C(=O)CN1Cc2ncc(N3CC[C@@H](Oc4ccc(Oc5ccc(F)cc5)nc4)C3=O)cc2C1=O` [Example 1-28, 2-[3-[(3R)-3-[[6-(4-fluorophenoxy)-3-pyridyl]oxy]-2-oxo-pyrrolidin-1-yl]-5-oxo-7H-pyrrolo[3,4-b]pyridin-6-yl]-N,N-dimethyl-acetamide], the EC50 turned out to be 976 nM.
With `CCOC(=O)CN1Cc2ccc(N3CC[C@@H](Oc4ccc(OCC5CC5)nc4)C3=O)cc2C1=O` [Example 1-29, ethyl 2-[6-[(3R)-3-[[6-(cyclopropylmethoxy)-3-pyridyl]oxy]-2-oxo-pyrrolidin-1-yl]-1-oxo-isoindolin-2-yl]acetate] the figure was 15 nM; with `CCOc1ccc(O[C@@H]2CCN(c3cc(F)c4c(c3)C(=O)N(C(C)(C)C)C4)C2=O)cn1` [Example 1-30, 2-tert-butyl-6-[(3R)-3-[(6-ethoxy-3-pyridyl)oxy]-2-oxo-pyrrolidin-1-yl]-4-fluoro-isoindolin-1-one], over 100000 nM; with `CCOc1ccc(O[C@@H]2CCN(c3cc(F)c4c(c3)C(=O)N(CC(=O)OC)C4)C2=O)cn1` [Example 1-31, methyl 2-[6-[(3R)-3-[(6-ethoxy-3-pyridyl)oxy]-2-oxo-pyrrolidin-1-yl]-4-fluoro-1-oxo-isoindolin-2-yl]acetate], 65 nM.
With `COC(=O)CN1Cc2ccc(N3CC[C@@H](Oc4ccc(OCCC5CC5)nc4)C3=O)cc2C1=O` [Example 1-32, methyl 2-[6-[(3R)-3-[[6-(2-cyclopropylethoxy)-3-pyridyl]oxy]-2-oxo-pyrrolidin-1-yl]-1-oxo-isoindolin-2-yl]acetate] the figure was 63 nM; with `CC(C)(C)N1Cc2c(F)cc(N3CC[C@@H](Oc4ccc(OCC5CC5)nc4)C3=O)cc2C1=O` [Example 1-33, 2-tert-butyl-6-[(3R)-3-[[6-(cyclopropylmethoxy)-3-pyridyl]oxy]-2-oxo-pyrrolidin-1-yl]-4-fluoro-isoindolin-1-one], 8510 nM; with `COC(=O)CN1Cc2c(F)cc(N3CC[C@@H](Oc4ccc(OCCC5CC5)nc4)C3=O)cc2C1=O` [Example 1-35, methyl 2-[6-[(3R)-3-[[6-(2-cyclopropylethoxy)-3-pyridyl]oxy]-2-oxo-pyrrolidin-1-yl]-4-fluoro-1-oxo-isoindolin-2-yl]acetate], 19 nM.
With `O=C1c2cc(N3CC[C@@H](Oc4ccc(OCCC5CC5)nc4)C3=O)cc(F)c2CN1CCO` [Example 1-36, 6-[(3R)-3-[[6-(2-cyclopropylethoxy)-3-pyridyl]oxy]-2-oxo-pyrrolidin-1-yl]-4-fluoro-2-(2-hydroxyethyl)isoindolin-1-one] the figure was 142 nM.
Regarding `CN(C)C(=O)CN1Cc2ccc(N3CC[C@@H](Oc4ccc(OC5CC5)nc4)C3=O)cc2C1=O` [Example 1-37, 2-[6-[(3R)-3-[[6-(cyclopropoxy)-3-pyridyl]oxy]-2-oxo-pyrrolidin-1-yl]-1-oxo-isoindolin-2-yl]-N,N-dimethyl-acetamide], the EC50 amounted to 1040 nM.
Take `CN(C)C(=O)CN1Cc2ccc(N3CC[C@@H](Oc4ccc(OCCC5CC5)nc4)C3=O)cc2C1=O` [Example 1-38, 2-[6-[(3R)-3-[[6-(2-cyclopropylethoxy)-3-pyridyl]oxy]-2-oxo-pyrrolidin-1-yl]-1-oxo-isoindolin-2-yl]-N,N-dimethyl-acetamide]: the EC50 worked out at 35 nM.
In the case of `CN(C)C(=O)CN1Cc2ccc(N3CC[C@@H](Oc4ccc(OCC5CC5)nc4)C3=O)cc2C1=O` [Example 1-39, 2-[6-[(3R)-3-[[6-(cyclopropylmethoxy)-3-pyridyl]oxy]-2-oxo-pyrrolidin-1-yl]-1-oxo-isoindolin-2-yl]-N,N-dimethyl-acetamide] it was 60 nM; in that of `COC(=O)CN1Cc2ccc(N3CC[C@@H](Oc4ccc(OCC5CC5)nc4)C3=O)cc2C1=O` [Example 1-40, methyl 2-[6-[(3R)-3-[[6-(cyclopropylmethoxy)-3-pyridyl]oxy]-2-oxo-pyrrolidin-1-yl]-1-oxo-isoindolin-2-yl]acetate], 44 nM.
As to `CN(C)C(=O)c1nc2ccc(N3CC[C@@H](Oc4ccc(OCC5CC5)nc4)C3=O)cc2c(=O)n1C` [Example 1-43, 6-[(3R)-3-[[6-(cyclopropylmethoxy)-3-pyridyl]oxy]-2-oxo-pyrrolidin-1-yl]-N,N,3-trimethyl-4-oxo-quinazoline-2-carboxamide], the EC50 was 449 nM.
With `CN(C)C(=O)c1nc2ccc(N3CC[C@@H](Oc4ccc(OCC5CC5)nc4)C3=O)cc2c(=O)[nH]1` [Example 1-44, 6-[(3R)-3-[[6-(cyclopropylmethoxy)-3-pyridyl]oxy]-2-oxo-pyrrolidin-1-yl]-N,N-dimethyl-4-oxo-3H-quinazoline-2-carboxamide] the figure was 276 nM; with `CN(CCO)C(=O)CN1Cc2ccc(N3CC[C@@H](Oc4ccc(OCC(F)(F)F)nc4)C3=O)cc2C1=O` [Example 1-45, N-(2-hydroxyethyl)-N-methyl-2-[1-oxo-6-[(3R)-2-oxo-3-[[6-(2,2,2-trifluoroethoxy)-3-pyridyl]oxy]pyrrolidin-1-yl]isoindolin-2-yl]acetamide], 179 nM; with `O=C(CN1Cc2ccc(N3CC[C@@H](Oc4ccc(OCC(F)(F)F)nc4)C3=O)cc2C1=O)N1CCC(O)CC1` [Example 1-46, 2-[2-(4-hydroxy-1-piperidyl)-2-oxo-ethyl]-6-[(3R)-2-oxo-3-[[6-(2,2,2-trifluoroethoxy)-3-pyridyl]oxy]pyrrolidin-1-yl]isoindolin-1-one], 184 nM.
With `O=C(CN1Cc2ccc(N3CC[C@@H](Oc4ccc(OCC(F)(F)F)nc4)C3=O)cc2C1=O)N1CC(O)C1` [Example 1-47, 2-[2-(3-hydroxyazetidin-1-yl)-2-oxo-ethyl]-6-[(3R)-2-oxo-3-[[6-(2,2,2-trifluoroethoxy)-3-pyridyl]oxy]pyrrolidin-1-yl]isoindolin-1-one] the figure was 218 nM; with `CN(C)C(=O)CN1Cc2ccc(N3CC[C@@H](Oc4ccc(Oc5ccc(F)cc5F)nc4)C3=O)cc2C1=O` [Example 1-48, 2-[6-[(3R)-3-[[6-(2,4-difluorophenoxy)-3-pyridyl]oxy]-2-oxo-pyrrolidin-1-yl]-1-oxo-isoindolin-2-yl]-N,N-dimethyl-acetamide], 73 nM; with `CN(C)C(=O)CN1Cc2ncc(N3CC[C@@H](Oc4ccc(OCC(F)(F)F)nc4)C3=O)cc2C1=O` [Example 1-49, N,N-dimethyl-2-[5-oxo-3-[(3R)-2-oxo-3-[[6-(2,2,2-trifluoroethoxy)-3-pyridyl]oxy]pyrrolidin-1-yl]-7H-pyrrolo[3,4-b]pyridin-6-yl]acetamide], 106 nM.
With `C[S+]([O-])CN1Cc2ccc(N3CC[C@@H](Oc4ccc(Oc5ccc(F)cc5)nc4)C3=O)cc2C1=O` (stereo partly drawn) [Example 1-50, 6-[(3R)-3-[[6-(4-fluorophenoxy)-3-pyridyl]oxy]-2-oxo-pyrrolidin-1-yl]-2-(methylsulfinylmethyl)isoindolin-1-one] the figure was 64 nM; with `CSCN1Cc2ccc(N3CC[C@@H](Oc4ccc(OCC5CC5)nc4)C3=O)cc2C1=O` [Example 1-51, 6-[(3R)-3-[[6-(cyclopropylmethoxy)-3-pyridyl]oxy]-2-oxo-pyrrolidin-1-yl]-2-(methylsulfanylmethyl)isoindolin-1-one], 57 nM.
For the compound `C[S+]([O-])CN1Cc2ccc(N3CC[C@@H](Oc4ccc(OCC5CC5)nc4)C3=O)cc2C1=O` (stereo partly drawn) [Example 1-52, 6-[(3R)-3-[[6-(cyclopropylmethoxy)-3-pyridyl]oxy]-2-oxo-pyrrolidin-1-yl]-2-(methylsulfinylmethyl)isoindolin-1-one], the EC50 was determined as 124 nM.
